Source: patent publication US6737383B1, “Herbicidal oxadiazolidines” (priority 1999, dated 2004)

How the values were obtained:
[1] = system: rice; test: Test B flood test rice; assay type: in vivo, Oryza sativa
Summary of the method: (§1)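 Flood test on plants grown to the 2-leaf stage; treated plants kept in greenhouse twelve to sixteen days, then visually rated against controls on a 0 (no effect) to 10 (complete control) scale.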

[2] = system: sugar beet; test: Test B pre/postemergence sugar beet; assay type: in vivo, Beta vulgaris
Summary of the method: (§2)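 Herbicidal effect was estimated by eye on a ten-point control scale after plants spent twelve to sixteen days in a greenhouse following soil or foliar treatment. Foliar sprays targeted plants at one to four leaves; all doses were formulated in a non-phytotoxic solvent with surfactant.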

[3] = system: purple nutsedge; test: Test B pre/postemergence purple nutsedge; assay type: in vivo, Cyperus rotundus
Summary of the method: as §2

[4] = system: morningglory; test: Test B pre/postemergence morningglory; assay type: in vivo, Ipomoea hederacea
Summary of the method: as §2

[5] = system: bedstraw; test: Test B pre/postemergence bedstraw; assay type: in vivo, Galium aparine
Summary of the method: as §2

[6] = system: rape; test: Test B pre/postemergence rape; assay type: in vivo, Brassica napus
Summary of the method: as §2

[7] = system: cocklebur; test: Test B pre/postemergence cocklebur; assay type: in vivo, Xanthium strumarium
Summary of the method: as §2

[8] = system: soybean; test: Test B pre/postemergence soybean; assay type: in vivo, Glycine max
Summary of the method: as §2

[9] = system: pigweed; test: Test B pre/postemergence pigweed; assay type: in vivo, Amaranthus retroflexus
Summary of the method: as §2

[10] = system: wild oat; test: Test B pre/postemergence wild oat; assay type: in vivo, Avena fatua
Summary of the method: as §2

[11] = system: blackgrass; test: Test B pre/postemergence blackgrass; assay type: in vivo, Alopecurus myosuroides
Summary of the method: as §2

[12] = system: surinam grass; test: Test B pre/postemergence surinam grass; assay type: in vivo, Brachiaria decumbens
Summary of the method: as §2

[13] = system: velvetleaf; test: Test B pre/postemergence velvetleaf; assay type: in vivo, Abutilon theophrasti
Summary of the method: as §2

[14] = system: corn; test: Test B pre/postemergence corn; assay type: in vivo, Zea mays
Summary of the method: as §2

[15] = system: smallflower flatsedge; test: Test B flood test smallflower flatsedge; assay type: in vivo, Cyperus difformis
Summary of the method: as §1

[16] = system: bamyardgrass; test: Test B flood test barnyardgrass; assay type: in vivo, Echinochloa crus-galli
Summary of the method: as §1

[17] = Postemergence, Rate 1000 g/ha, scale 0 to 10 (0 no effect, 10 complete control)
[18] = Rate 125 g/ha, Postemergence section (flood test species), scale 0 to 10, 0 no effect, 10 complete control
[19] = Rate 500 g/ha, Postemergence section of Table B, 0 to 10 scale (0 no effect, 10 complete control)
[20] = flood test, listed under Postemergence, Rate 250 g/ha, scale 0 to 10, 0 no effect, 10 complete control
[21] = Postemergence, Rate 250 g/ha, scale 0 to 10, 0 no effect, 10 complete control
[22] = Preemergence, Rate 125 g/ha, scale 0 to 10 (0 no effect, 10 complete control)
[23] = Preemergence, Rate 250 g/ha, scale of 0 to 10 where 0 is no effect and 10 is complete control
[24] = Preemergence, Rate 500 g/ha, scale 0 (no effect) to 10 (complete control)
[25] = Rate 125 g/ha, Postemergence, scale 0 to 10, 0 no effect, 10 complete control
[26] = Rate 1000 g/ha, Preemergence, scale 0 to 10 (0 no effect, 10 complete control)
[27] = Rate 500 g/ha, Postemergence, 0 to 10 scale (0 no effect, 10 complete control)

For `CC(C)N(C(=O)n1oc(=O)n(-c2ccc(OC(F)(F)F)cc2)c1=O)C1=CCOCC1` [Compound 13], the “Rice plant response rating” value [1, 17] was 0, the “Rice plant response rating” value [1, 18] was 0 and the “Rice plant response rating” value [1, 19] was 0. For the same molecule, the “Rice plant response rating” value [1, 20] was 0, the “Sugarbeets plant response rating” value [2, 21] was 0 and the “Sugarbeets plant response rating” value [2, 17] was 0. For the same molecule, the “Plant response rating, Sugarbeets” value [2, 22] was 0, the “Plant response rating, Sugarbeets” value [2, 23] was 0 and the “Sugarbeets plant response rating” value [2, 24] was 0. For the same molecule, the “Sugarbeets plant response rating” value [2, 25] was 0, the “Plant response rating, Sugarbeets” value [2, 26] was 0 and the “Nutsedge plant response rating” value [3, 21] was 0. The “Nutsedge plant response rating” value [3, 17] was 0, the “Plant response rating, Nutsedge” value [3, 22] was 0 and the “Plant response rating, Nutsedge” value [3, 23] was 0. The “Nutsedge plant response rating” value [3, 24] was 0, the “Nutsedge plant response rating” value [3, 25] was 0 and the “Nutsedge plant response rating” value [3, 27] was 0. The “Plant response rating, Nutsedge” value [3, 26] was 0, the “Morningglory plant response rating” value [4, 21] was 0 and the “Morningglory plant response rating” value [4, 17] was 0. The “Plant response rating, Morningglory” value [4, 22] was 0, the “Plant response rating, Morningglory” value [4, 23] was 0 and the “Morningglory plant response rating” value [4, 24] was 0. The “Morningglory plant response rating” value [4, 25] was 0, the “Morningglory plant response rating” value [4, 27] was 0 and the “Plant response rating, Morningglory” value [4, 26] was 2. For the same molecule, the “Bedstraw plant response rating” value [5, 21] was 0, the “Bedstraw plant response rating” value [5, 17] was 0 and the “Plant response rating, Bedstraw” value [5, 22] was 0. The “Plant response rating, Bedstraw” value [5, 23] was 0, the “Bedstraw plant response rating” value [5, 24] was 0 and the “Bedstraw plant response rating” value [5, 25] was 0. The “Bedstraw plant response rating” value [5, 27] was 0, the “Plant response rating, Bedstraw” value [5, 26] was 3 and the “Rape plant response rating” value [6, 21] was 0. For the same molecule, the “Rape plant response rating” value [6, 17] was 1, the “Plant response rating, Rape” value [6, 22] was 0 and the “Plant response rating, Rape” value [6, 23] was 0. The “Rape plant response rating” value [6, 24] was 0, the “Rape plant response rating” value [6, 25] was 0 and the “Rape plant response rating” value [6, 27] was 1. The “Plant response rating, Rape” value [6, 26] was 0, the “Cocklebur plant response rating” value [7, 21] was 0 and the “Cocklebur plant response rating” value [7, 17] was 0. The “Plant response rating, Cocklebur” value [7, 22] was 0, the “Plant response rating, Cocklebur” value [7, 23] was 0 and the “Cocklebur plant response rating” value [7, 24] was 0. For the same molecule, the “Cocklebur plant response rating” value [7, 25] was 0, the “Cocklebur plant response rating” value [7, 27] was 0 and the “Soybean plant response rating” value [8, 21] was 2. The “Soybean plant response rating” value [8, 17] was 3, the “Plant response rating, Soybean” value [8, 22] was 0 and the “Plant response rating, Soybean” value [8, 23] was 0. The “Soybean plant response rating” value [8, 24] was 0, the “Soybean plant response rating” value [8, 25] was 1 and the “Plant response rating, Soybean” value [8, 26] was 0. For the same molecule, the “Redroot pigweed plant response rating” value [9, 21] was 0, the “Redroot pigweed plant response rating” value [9, 17] was 0 and the “Plant response rating, Redroot pigweed” value [9, 22] was 0. For the same molecule, the “Plant response rating, Redroot pigweed” value [9, 23] was 0, the “Redroot pigweed plant response rating” value [9, 24] was 0 and the “Redroot pigweed plant response rating” value [9, 25] was 0. For the same molecule, the “Redroot pigweed plant response rating” value [9, 27] was 0, the “Plant response rating, Redroot pigweed” value [9, 26] was 3 and the “Wild oats plant response rating” value [10, 21] was 0. The “Wild oats plant response rating” value [10, 17] was 2, the “Plant response rating, Wild oats” value [10, 22] was 0 and the “Plant response rating, Wild oats” value [10, 23] was 0. The “Wild oats plant response rating” value [10, 24] was 2, the “Wild oats plant response rating” value [10, 25] was 0 and the “Plant response rating, Wild oats” value [10, 26] was 7. The “Blackgrass plant response rating” value [11, 21] was 3, the “Blackgrass plant response rating” value [11, 17] was 8 and the “Plant response rating, Blackgrass” value [11, 22] was 0. For the same molecule, the “Plant response rating, Blackgrass” value [11, 23] was 0, the “Blackgrass plant response rating” value [11, 24] was 6 and the “Blackgrass plant response rating” value [11, 25] was 0. The “Blackgrass plant response rating” value [11, 27] was 4, the “Plant response rating, Blackgrass” value [11, 26] was 9 and the “B. signalgrass plant response rating” value [12, 21] was 2. For the same molecule, the “B. signalgrass plant response rating” value [12, 17] was 6, the “Plant response rating, B. signalgrass” value [12, 22] was 0 and the “Plant response rating, B. signalgrass” value [12, 23] was 2. The “B. signalgrass plant response rating” value [12, 24] was 4, the “B. signalgrass plant response rating” value [12, 25] was 0 and the “B. signalgrass plant response rating” value [12, 27] was 5. For the same molecule, the “Plant response rating, B. signalgrass” value [12, 26] was 8, the “Velvetleaf plant response rating” value [13, 21] was 0 and the “Velvetleaf plant response rating” value [13, 17] was 0. For the same molecule, the “Plant response rating, Velvetleaf” value [13, 22] was 0, the “Plant response rating, Velvetleaf” value [13, 23] was 0 and the “Velvetleaf plant response rating” value [13, 24] was 0. For the same molecule, the “Velvetleaf plant response rating” value [13, 25] was 0, the “Plant response rating, Velvetleaf” value [13, 26] was 2 and the “Corn plant response rating” value [14, 21] was 0. For the same molecule, the “Corn plant response rating” value [14, 17] was 0, the “Plant response rating, Corn” value [14, 22] was 0 and the “Plant response rating, Corn” value [14, 23] was 0. The “Corn plant response rating” value [14, 24] was 0, the “Corn plant response rating” value [14, 25] was 0 and the “Corn plant response rating” value [14, 27] was 0. The “Plant response rating, Corn” value [14, 26] was 0, the “S. Flatsedge plant response rating” value [15, 17] was 0 and the “S. Flatsedge plant response rating” value [15, 18] was 0. The “S. Flatsedge plant response rating” value [15, 20] was 0, the “Barnyardgrass plant response rating” value [16, 17] was 0 and the “Barnyardgrass plant response rating” value [16, 18] was 0. For the same molecule, the “Barnyardgrass plant response rating” value [16, 19] was 0 and the “Barnyardgrass plant response rating” value [16, 20] was 0.
